Data: patent US6936584B1, “Mixed amylin activity compounds” (Amylin Pharmaceuticals, Inc., priority 1998, dated 2005)
Numbering of substitutions follows the chain as printed. Entries after “also recorded” stand apart in the source; their conditions may differ. Each block holds one molecule with its values, some of them ahead of it. Square brackets hold non-standard residues; d marks the D form. Ends that are not written are not given here. * marks the point of attachment. 125I = iodine-125 radiolabel, [125I]*; Aib = CC(C)(N)C(=O)O; For = O=C*

What was measured:
[1] = test system: gastric emptying in rats; test: Phenol red gastric emptying assay in conscious rats; details: for inhibition of gastric emptying: conscious rat model, adrenomedullin at highest doses (100 μg); for ED50 inhibiting gastric emptying (FIG. 7): conscious rats; for dose at which suppression of gastric emptying was complete / ED50 for inhibition of gastric emptying: subcutaneous; for ED50 for inhibition of gastric emptying: normal (Harlan Sprague Dawley) rats, ±0.19 log units
[2] = Effect on plasma glucose, lactate and calcium levels in anesthetized rats; assay type: in vivo, rat; details: 100 μg subcutaneous
[3] = test system: effects of rat amylin on plasma levels of glucose, lactate and calcium; test: Effect on plasma glucose, lactate, calcium and mean arterial pressure in the presence of amylin, anesthetized rats; assay type: in vivo
[4] = target: T1, calcitonin receptors (Homo sapiens, UniProt P30988); test: Adenyl cyclase stimulation, cyclic AMP accumulation in MCF7-7 cells; assay type: cell-based
T1 sequence (P30988 25-474): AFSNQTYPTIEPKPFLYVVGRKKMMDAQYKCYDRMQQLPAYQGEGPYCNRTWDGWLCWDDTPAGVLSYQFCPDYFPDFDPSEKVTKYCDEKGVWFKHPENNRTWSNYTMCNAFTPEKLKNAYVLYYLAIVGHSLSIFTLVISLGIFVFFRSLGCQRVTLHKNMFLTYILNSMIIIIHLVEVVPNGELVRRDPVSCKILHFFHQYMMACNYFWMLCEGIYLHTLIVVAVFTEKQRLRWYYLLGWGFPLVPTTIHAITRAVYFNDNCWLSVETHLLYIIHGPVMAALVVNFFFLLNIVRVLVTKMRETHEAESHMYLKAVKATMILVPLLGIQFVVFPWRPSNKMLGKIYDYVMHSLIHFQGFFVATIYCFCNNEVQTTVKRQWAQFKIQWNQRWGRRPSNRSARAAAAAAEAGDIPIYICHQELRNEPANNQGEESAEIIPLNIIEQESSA

[5] = test system: isolated soleus muscle; details: insulin 7.1 nM
[6] = target: T1, calcitonin receptors; test: Binding to membranes from T47D cells (calcitonin receptors), displacement of [125I]salmon calcitonin; parameters: Membranes were prepared from confluent cultures of T47D cells; host or cells: T47D human breast carcinoma cells; details: for affinity for calcitonin receptors compared with amylin receptors: calcitonin (T47D) versus amylin (nucleus accumbens) receptors; for IC50: T47D membranes, mean ± SEM (n), read-out: Receptor IC50 in nM [mean ± SEM (n)] Calcitonin
[7] = target: human calcitonin receptors (T47D and MCF7-7 breast carcinoma cells) (human) (UniProt P30988); test: cell-based or functional assay
[8] = target: T2, amylin receptors (Rattus norvegicus, UniProt P32214); test: Binding to rat nucleus accumbens membranes (amylin receptors), displacement of 125I-BH-rat amylin; details: read-out: Receptor IC50 in nM [mean ± SEM (n)] Amylin
T2 sequence (P32214 25-516): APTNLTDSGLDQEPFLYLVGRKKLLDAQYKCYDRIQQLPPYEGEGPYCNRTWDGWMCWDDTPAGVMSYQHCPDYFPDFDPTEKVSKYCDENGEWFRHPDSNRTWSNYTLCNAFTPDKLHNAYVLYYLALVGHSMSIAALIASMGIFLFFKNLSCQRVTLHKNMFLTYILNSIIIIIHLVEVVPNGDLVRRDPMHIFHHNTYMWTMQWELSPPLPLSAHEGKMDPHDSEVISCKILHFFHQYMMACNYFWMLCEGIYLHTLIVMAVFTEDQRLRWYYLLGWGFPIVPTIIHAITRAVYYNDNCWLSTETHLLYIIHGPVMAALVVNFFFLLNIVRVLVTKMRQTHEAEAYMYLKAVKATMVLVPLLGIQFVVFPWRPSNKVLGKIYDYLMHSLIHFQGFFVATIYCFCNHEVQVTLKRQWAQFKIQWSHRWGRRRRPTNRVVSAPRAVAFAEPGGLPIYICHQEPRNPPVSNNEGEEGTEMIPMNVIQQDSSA

[9] = target: T3, CGRP receptors (Homo sapiens, UniProt O60894+Q16602); test: Binding to membranes from SK-N-MC cells (CGRP receptors), displacement of [125I]human-CGRP; details: read-out: Receptor IC50 in nM [mean ± SEM (n)] CGRP
T3 construct: SK-N-MC cells (ATCC No. HTB-10) were homogenized in 50 mM Hepes buffer; host or cells: SK-N-MC human neuroblastoma cells
T3 sequence (Q16602 23-461): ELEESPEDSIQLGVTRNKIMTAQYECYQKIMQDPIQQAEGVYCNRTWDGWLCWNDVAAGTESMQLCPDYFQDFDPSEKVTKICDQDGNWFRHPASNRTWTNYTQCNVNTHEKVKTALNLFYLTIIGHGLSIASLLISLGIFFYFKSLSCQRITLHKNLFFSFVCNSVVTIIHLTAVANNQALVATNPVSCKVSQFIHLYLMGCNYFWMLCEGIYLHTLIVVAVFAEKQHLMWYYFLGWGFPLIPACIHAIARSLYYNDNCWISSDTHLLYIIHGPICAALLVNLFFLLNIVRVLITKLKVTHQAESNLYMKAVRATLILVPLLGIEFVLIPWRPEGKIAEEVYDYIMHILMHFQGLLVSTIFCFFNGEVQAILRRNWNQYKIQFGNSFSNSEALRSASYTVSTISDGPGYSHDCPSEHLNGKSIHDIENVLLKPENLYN
T3 sequence (O60894 27-148 partner): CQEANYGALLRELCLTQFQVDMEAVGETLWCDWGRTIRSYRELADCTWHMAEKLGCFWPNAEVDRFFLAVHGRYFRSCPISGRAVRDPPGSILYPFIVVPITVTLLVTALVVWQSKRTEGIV

[10] = target: T4, human calcitonin receptors (T47D and MCF7-7 breast carcinoma cells) (human, UniProt P30988 25-474); test: radioligand competition, [125I]salmon calcitonin on T47D cell membranes
T4 construct: whole, on cells; also called calcitonin (T47D) receptors
T4 sequence (looked up): T1 sequence (P30988 25-474)

[11] = target: T5, rat calcitonin C1a receptor (rat, UniProt P32214 25-516); test: cell-based or functional assay
T5 sequence (looked up): T2 sequence (P32214 25-516)

[12] = target: T4, human calcitonin receptors (T47D and …); test: cell-based or functional assay
[13] = target: T6, human CGRP receptors (SK-N-MC neuroblastoma cells) (human, UniProt Q16602 23-461; O60894 27-148); test: radioligand competition, [125I]human CGRP on SK-N-MC cell membranes
T6 construct: whole, on cells; also called CGRP (SK-N-MC) receptors
T6 sequence (Q16602 23-461, chain 1 of 2): as the sequence (Q16602 23-461) above
T6 sequence (O60894 27-148, chain 2 of 2): as the sequence (O60894 27-148 partner) above

[14] = target: T6, human CGRP receptors (SK-N-MC …); test: radioligand competition, SK-N-MC membranes against rat nucleus accumbens membranes
[15] = target: T7, amylin receptors of rat nucleus accumbens membranes (rat); test: radioligand competition, 125I-BH-rat amylin on rat nucleus accumbens membranes
T7 chain 1: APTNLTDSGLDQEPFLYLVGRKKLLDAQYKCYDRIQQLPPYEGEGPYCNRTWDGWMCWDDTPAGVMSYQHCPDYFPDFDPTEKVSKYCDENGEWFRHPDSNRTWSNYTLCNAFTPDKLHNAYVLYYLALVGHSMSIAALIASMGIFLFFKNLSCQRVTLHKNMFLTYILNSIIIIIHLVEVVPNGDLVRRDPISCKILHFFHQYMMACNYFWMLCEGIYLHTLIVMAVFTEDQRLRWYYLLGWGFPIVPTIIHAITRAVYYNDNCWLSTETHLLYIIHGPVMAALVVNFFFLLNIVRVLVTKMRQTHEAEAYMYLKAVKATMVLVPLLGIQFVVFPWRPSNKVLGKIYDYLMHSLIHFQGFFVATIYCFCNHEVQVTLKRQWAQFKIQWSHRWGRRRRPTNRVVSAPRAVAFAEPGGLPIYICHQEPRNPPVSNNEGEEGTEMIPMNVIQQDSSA
T7 chain 2: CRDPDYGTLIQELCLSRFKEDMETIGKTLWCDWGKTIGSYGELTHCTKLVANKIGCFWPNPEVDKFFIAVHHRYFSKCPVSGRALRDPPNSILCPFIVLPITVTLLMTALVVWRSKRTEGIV

[16] = target: T4, human calcitonin receptors (T47D and …); test: radioligand Kd used to derive Ki, T47D cell membranes
[17] = intravenous preinfusion of test compound, then rat amylin 50 μg bolus + 50 μg/hour, versus saline preinfusion

Molecule: Salmon calcitonin
inhibition of gastric emptying [1]: dose-dependently inhibit gastric emptying
ED50 inhibiting gastric emptying (FIG. 7) [1]: 0.12 μg/rat

Molecule: 4-methylpentanoyl-Ser-Thr-Ala-Val-Leu-Aib-Lys(For)-Leu-Ser-Gln-Glu-Leu-Aib-Lys(For)-Leu-Gln-Thr-Tyr-Pro-Arg-Thr-Asn-Thr-Gly-Ser-Gly-Thr-Pro [Compound 2]
plasma calcium concentration [2]: caused a fall in plasma calcium concentration
plasma glucose [2]: neither Compound 1 nor Compound 2 increased
plasma lactate [2]: neither Compound 1 nor Compound 2 increased
plasma calcium levels ([3]; after infusion of test compound, with subsequent amylin infusion): A fall in plasma calcium levels
increase in plasma glucose after amylin administration [3, 17]: smaller increases
increase in plasma lactate after amylin administration [3, 17]: smaller increases
reversal of the blood pressure lowering effect of amylin (mean arterial pressure) ([3]; intravenous preinfusion of test compound, then rat amylin infusion): lack of ability of these compounds to reverse the blood pressure lowering effect of amylin
fold less potent than human calcitonin in stimulating adenyl cyclase activity [4]: 3.5 fold
functional activity at calcitonin receptors [4]: partial agonist activity
increase in cyclic AMP as percent of the increase produced by human calcitonin [4]: approximately 20%
amylin antagonist activity, reversal of the effect of amylin on insulin-stimulated incorporation of glucose into glycogen ([5]; amylin 100 nM, test compound 1 μM): reversed
amylin agonist activity, inhibition of insulin-stimulated incorporation of glucose into glycogen ([5]; test compound 100 nM): no discernable amylin agonist activity; also recorded: neither Compound 1 (100 nM) nor Compound 2 (100 nM) affected the response to insulin
inhibition of gastric emptying [1]: behaved as potent amylin and calcitonin agonists in inhibition of gastric emptying
affinity for calcitonin receptors compared with amylin receptors [6]: greater affinity for calcitonin receptors than for amylin receptors

Molecule: rat amylin: Synthetic rat amylin (Bachem, Torrance, Calif.), positive control
plasma calcium concentration [2]: fall
plasma glucose [2]: increase
plasma lactate [2]: increase
dose at which suppression of gastric emptying was complete ([1]; diabetic rats): 10 µg
ED50 for inhibition of gastric emptying ([1]; 5 minutes before gavage): 0.43 µg
ED50 for inhibition of gastric emptying [1]: 0.60 nmol/kg
dose at which suppression of gastric emptying was complete ([1]; normal HSD rats): 1 µg

Molecule: Leu-Ser-Thr-Ala-Val-Leu-Gly-Arg-Leu-Ser-Gln-Glu-Leu-His-Arg-Leu-Gln-Thr-Tyr-Pro-Arg-Thr-Asn-Thr-Gly-Ser-Asn-Thr-Tyr [Compound 4]
fold less potent than human calcitonin in stimulating adenyl cyclase activity [4]: 7 fold

Molecule: rat calcitonin
inhibition of gastric emptying [1]: dose-dependently inhibit gastric emptying
ED50 inhibiting gastric emptying (FIG. 7) [1]: 0.41 μg/rat

fold less potent than calcitonin in stimulating adenyl cyclase activity, MCF7-7 cells [7]: 5 fold
fold less potent than calcitonin in stimulating adenyl cyclase activity, T47D cells [7]: 7 fold
Molecule: human amylin (from UniProt P10997 34-70) (ligand)

Molecule: LSTAVLGRLSQELHRLQTYPRTNTGSNTY [Compound 6]
IC50 [8]: 18.6 ± 5.3 nM
fold less potent than human calcitonin in stimulating adenyl cyclase activity [4]: 80 fold
EC50 ([4]; read-out: EC50 cyclic AMP accumulation / adenylyl cyclase activity): 34 nM
IC50 [9]: > 10000 nM
IC50 [6]: 0.56 nM
affinity for calcitonin receptors compared with amylin receptors [6]: greater affinity for calcitonin receptors than for amylin receptors

Molecule: LSTSVLGRLSQELHRLQTYPRTNTGSNTY [Compound 3]
IC50 [8]: 37 ± 4.6 nM
IC50 [9]: > 10000 nM
IC50 [6]: 1.45 nM
affinity for calcitonin receptors compared with amylin receptors [6]: greater affinity for calcitonin receptors than for amylin receptors

Molecule: Adrenomedullin: observed to behave as a CGRP agonist but not as an amylin or calcitonin agonist (YRQSMNNFQGLRSFGCRFGTCTVQKLAHQIYQFTDKDKDNVAPRSKISPQGY; ends and bridges not checked; cysteine pairing not given here; UniProt P35318 95-146, looked up)
inhibition of gastric emptying [1]: does not inhibit gastric emptying

IC50 [10]: 93 nM
B1: Compound 8 (peptide)
peptide: VL[Aib]K(For)LSQEL[Aib]K(For)LQTYPRTNTGSNTY-NH2

EC50 of adenyl cyclase activity, cells expressing rat calcitonin C1a receptors [11]: 0.97 nM
EC50 of cyclic AMP accumulation, T47D cells [12]: 2.2 nM
IC50 [13]: 160 nM
IC50 [10]: 0.22 nM
fold lower affinity than for the amylin receptors [14]: ≥ 300 fold
IC50 [15]: 0.25 nM
B2: Compound 1 (peptide)
peptide: LSTCVLGRLSQELHRLQTYPRTNTGSNTY
notes: Synthetic 29-residue peptide

Kd [16]: 0.019 nM
B3: [^125I]salmon calcitonin (ligand, UniProt P01263 83-114, looked up)
peptide: CSNLSTCVLGKLSQELHKLQTY(125I)PRTNTGSGTP
modifications: ends and bridges not checked
notes: mature; also called labeled salmon calcitonin

IC50 [10]: 1.45 nM
fold lower affinity than for the amylin receptors [14]: ≥ 300 fold
IC50 [15]: 37 nM
B4: Compound 3 (peptide)
peptide: XLSTSVLGRLSQELHRLQTYPRTNTGSNTY
modifications: N-terminal acetyl (Ac-Leu)

EC50 of adenylyl cyclase stimulation, MCF7-7 cells [12]: 34 nM
fold lower potency than human calcitonin, MCF7-7 cells [12]: 80 fold
IC50 [10]: 0.56 nM
fold lower affinity than for the amylin receptors [14]: ≥ 300 fold
IC50 [15]: 18.6 nM
B5: Compound 6 (peptide)
peptide: B4 peptide with S5A
modifications: N-terminal acetyl (Ac-Leu)
